Holding throughout (type): physicochemical
Data set [1] in a line: Moisture sorption/desorption isotherm. The settings on record: over the range of 0-95% RH, 25° C. An excerpt:
It is most commonly used to study to study desolvation processes and quantatively determine the total volatile content of a solid. DSC is a technique that is often used to screen compounds for polymorphism because the temperatures(s) at which a physical change in a material occurs is usually characteristic of that material. Moisture sorption isotherms provide evaluation of the degree of hydroscopicity associated with a given material and characterization of non-hydrates and hydrates. Lastly, XRD is a technique that detects long-range order in a crystalline material. Moisture Sorption Isotherms were generated using a VTI SGA-100 flow instrument. The samples were analyzed at 25° C. from 0-95% relative humidity (RH) for adsorption and from 95-5% RH for desorption in steps of 5% RH. The adsorption and desorption isotherms were generated as a graph of the % weight change vs. % RH.

A further data set in a line: Aqueous solubility.
Data set [2] can be described thus: Variable temperature X-ray powder diffraction (crystal form stability). The settings on record: up to 125° C., increments of 25° C. The procedure:
Variable temperature X-ray powder diffraction patterns were obtained on a Siemens D5000 X-ray powder diffractometer which was equipped with a CuKα source (λ=1.54056) operated at 50 kV and 40 mA with a scintillation detector and nickel filter. The powder was packed into a top-loading, recessed temperature controlled holder and a smooth surface was obtained for diffraction. The sample was scanned from 2 to 35° 2θ at 2.5 seconds per step size of 0.04° beginning at 25° C. after an equilibration time of 5 minutes. Subsequent scans were obtained at increasing temperature increments of 25° C. to a maximum of 125° C.

For the molecule `COc1ccc(-c2sc3cc(O)ccc3c2Oc2ccc(OCCN3CCCCC3)cc2)cc1.Cl` [F-V, 6-hydroxy-3-(4-[2-(piperidin-1-yl)ethoxy]phenoxy)-2-(4-methoxyphenyl)benzo[b]thiophene hydrochloride], the “weight increase in moisture sorption/desorption isotherm” value in data set [1] is recorded as 0.11%. Also, the “higher aqueous solubility relative to F-III” value in the data set “Aqueous solubility” was ~10%. For the same molecule, the “change in the diffraction pattern on heating” value in data set [2] is given as “no significant change”.

These data come from patent publication US20040014672A1, “Novel crystalline form of 6-hydroxy-3-(4-[2-(piperidin-1-yl)ethoxy]phenoxy)-2-(4-methoxyphenyl)benzo[b]thiophene hydrochloride” (priority 2003, published 2004).
